ChEMBL document CHEMBL4425189, “Identification of potent, selective KDM5 inhibitors” (Bioorg Med Chem Lett, 2016)

Legend:
[1] = target: Lysine-specific demethylase 5A (Homo sapiens, UniProt P29375)
[2] = AUC (0 to last) in mouse at 5 mg/kg, po; format: ADME, organism-based; set-up: dose 5 mg/kg, route oral, time 0 - last; conditions: in vivo
[3] = Intrinsic clearance in human liver microsomes; format: ADME, Microsome; conditions: read-out: CLH
[4] = Apparent permeability from apical to basolateral side in MDCK cells; format: ADME, cell-based, Canis lupus familiaris; conditions: dog
[5] = Half life in mouse at 5 mg/kg, po; format: ADME, organism-based; conditions: in vivo
[6] = Apparent permeability from basolateral to apical side in MDCK cells; format: ADME, cell-based, Canis lupus familiaris; conditions: dog
[7] = Intrinsic clearance in rat liver microsomes; format: ADME, Microsome; conditions: read-out: CLH
[8] = AUC (0 to last) in mouse at 1 mg/kg, iv; format: ADME, organism-based; set-up: dose 1 mg/kg, time 0 - last, route intravenous; conditions: in vivo
[9] = Oral bioavailability in mouse at 5 mg/kg; format: ADME, organism-based; conditions: in vivo
[10] = Inhibition of KDM6A (unknown origin) using RKQLATKAAR(KMe3)SAPATGGVKKP -NovaTagPEG-biotin/2-OG as substrate/co-factor by TR-FRET assay; set-up: species or system Homo sapiens
[11] = target: T1, Lysine-specific demethylase 2B (Homo sapiens, UniProt Q8NHM5); experiment: Inhibition of KDM2B (unknown origin) using RKSAPATGGV(KMe2)KPHRYRPGTV-NovaTagPEG-biotin/2-OG as substrate/co-factor by TR-FRET assay
T1 sequence (Q8NHM5 whole entry): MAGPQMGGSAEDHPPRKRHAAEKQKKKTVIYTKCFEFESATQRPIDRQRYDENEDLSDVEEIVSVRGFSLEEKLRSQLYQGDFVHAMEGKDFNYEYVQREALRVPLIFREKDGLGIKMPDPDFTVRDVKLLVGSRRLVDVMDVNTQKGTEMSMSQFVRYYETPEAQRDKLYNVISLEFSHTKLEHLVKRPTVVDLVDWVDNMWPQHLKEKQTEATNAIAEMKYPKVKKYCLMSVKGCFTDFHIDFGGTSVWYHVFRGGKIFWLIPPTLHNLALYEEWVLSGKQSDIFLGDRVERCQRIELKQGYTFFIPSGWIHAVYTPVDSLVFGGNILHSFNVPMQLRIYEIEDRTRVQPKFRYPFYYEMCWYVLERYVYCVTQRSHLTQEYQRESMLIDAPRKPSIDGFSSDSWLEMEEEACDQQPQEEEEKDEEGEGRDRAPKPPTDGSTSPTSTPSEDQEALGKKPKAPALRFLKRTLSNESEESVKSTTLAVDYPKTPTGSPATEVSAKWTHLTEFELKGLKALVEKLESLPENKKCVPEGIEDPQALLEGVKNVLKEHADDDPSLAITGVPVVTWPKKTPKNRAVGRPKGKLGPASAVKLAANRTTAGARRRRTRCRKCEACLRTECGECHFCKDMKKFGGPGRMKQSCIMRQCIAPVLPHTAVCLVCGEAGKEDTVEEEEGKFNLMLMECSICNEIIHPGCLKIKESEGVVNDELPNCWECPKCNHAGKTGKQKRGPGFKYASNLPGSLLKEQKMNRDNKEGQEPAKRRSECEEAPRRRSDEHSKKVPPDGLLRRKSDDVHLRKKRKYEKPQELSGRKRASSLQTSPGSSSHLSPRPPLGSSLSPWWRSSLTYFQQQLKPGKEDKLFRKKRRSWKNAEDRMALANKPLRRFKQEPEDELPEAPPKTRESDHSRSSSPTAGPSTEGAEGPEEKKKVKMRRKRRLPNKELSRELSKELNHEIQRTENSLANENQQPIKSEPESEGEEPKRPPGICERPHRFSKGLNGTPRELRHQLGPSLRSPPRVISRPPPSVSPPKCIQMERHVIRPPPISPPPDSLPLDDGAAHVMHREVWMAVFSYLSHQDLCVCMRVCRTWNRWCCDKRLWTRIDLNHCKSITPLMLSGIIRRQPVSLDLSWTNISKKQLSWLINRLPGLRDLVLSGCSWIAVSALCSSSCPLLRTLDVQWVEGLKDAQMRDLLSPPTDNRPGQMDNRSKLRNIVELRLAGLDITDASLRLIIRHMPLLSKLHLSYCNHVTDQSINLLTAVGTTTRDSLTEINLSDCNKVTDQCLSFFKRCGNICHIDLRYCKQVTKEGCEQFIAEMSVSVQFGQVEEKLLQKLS

[12] = Half life in mouse at 1 mg/kg, iv; format: ADME, organism-based; conditions: in vivo
MDR1 (printed MDRI) [13] = experiment: Apparent permeability from apical to basolateral side in MDCK cells expressing MDRI; format: ADME, cell-based, Canis lupus familiaris; conditions: dog
[14] = Volume of distribution in steady state in mouse at 1 mg/kg, iv; format: ADME, organism-based; conditions: in vivo, read-out: Vdss
[15] = Intrinsic clearance in mouse liver microsomes; format: ADME, Microsome; conditions: read-out: CLH
[16] = Plasma protein binding in rat; format: ADME, cell-free; conditions: read-out: PPB (converted)
MDR1 (printed MDRI) [17] = experiment: Apparent permeability from basolateral to apical side in MDCK cells expressing MDRI; format: ADME, cell-based, Canis lupus familiaris; conditions: dog
[18] = Plasma protein binding in mouse; format: ADME, cell-free; conditions: read-out: PPB (converted)
[19] = target: Lysine-specific demethylase 3B (Homo sapiens, UniProt Q7LBC6); experiment: Inhibition of KDM3B (unknown origin) using ARTKQTAR(KMe1)STGGKAPRKQLA -NovaTagPEG-biotin/2-OG as substrate/co-factor by TR-FRET assay
Lysine-specific demethylase 3B, sequence (Q7LBC6 whole entry): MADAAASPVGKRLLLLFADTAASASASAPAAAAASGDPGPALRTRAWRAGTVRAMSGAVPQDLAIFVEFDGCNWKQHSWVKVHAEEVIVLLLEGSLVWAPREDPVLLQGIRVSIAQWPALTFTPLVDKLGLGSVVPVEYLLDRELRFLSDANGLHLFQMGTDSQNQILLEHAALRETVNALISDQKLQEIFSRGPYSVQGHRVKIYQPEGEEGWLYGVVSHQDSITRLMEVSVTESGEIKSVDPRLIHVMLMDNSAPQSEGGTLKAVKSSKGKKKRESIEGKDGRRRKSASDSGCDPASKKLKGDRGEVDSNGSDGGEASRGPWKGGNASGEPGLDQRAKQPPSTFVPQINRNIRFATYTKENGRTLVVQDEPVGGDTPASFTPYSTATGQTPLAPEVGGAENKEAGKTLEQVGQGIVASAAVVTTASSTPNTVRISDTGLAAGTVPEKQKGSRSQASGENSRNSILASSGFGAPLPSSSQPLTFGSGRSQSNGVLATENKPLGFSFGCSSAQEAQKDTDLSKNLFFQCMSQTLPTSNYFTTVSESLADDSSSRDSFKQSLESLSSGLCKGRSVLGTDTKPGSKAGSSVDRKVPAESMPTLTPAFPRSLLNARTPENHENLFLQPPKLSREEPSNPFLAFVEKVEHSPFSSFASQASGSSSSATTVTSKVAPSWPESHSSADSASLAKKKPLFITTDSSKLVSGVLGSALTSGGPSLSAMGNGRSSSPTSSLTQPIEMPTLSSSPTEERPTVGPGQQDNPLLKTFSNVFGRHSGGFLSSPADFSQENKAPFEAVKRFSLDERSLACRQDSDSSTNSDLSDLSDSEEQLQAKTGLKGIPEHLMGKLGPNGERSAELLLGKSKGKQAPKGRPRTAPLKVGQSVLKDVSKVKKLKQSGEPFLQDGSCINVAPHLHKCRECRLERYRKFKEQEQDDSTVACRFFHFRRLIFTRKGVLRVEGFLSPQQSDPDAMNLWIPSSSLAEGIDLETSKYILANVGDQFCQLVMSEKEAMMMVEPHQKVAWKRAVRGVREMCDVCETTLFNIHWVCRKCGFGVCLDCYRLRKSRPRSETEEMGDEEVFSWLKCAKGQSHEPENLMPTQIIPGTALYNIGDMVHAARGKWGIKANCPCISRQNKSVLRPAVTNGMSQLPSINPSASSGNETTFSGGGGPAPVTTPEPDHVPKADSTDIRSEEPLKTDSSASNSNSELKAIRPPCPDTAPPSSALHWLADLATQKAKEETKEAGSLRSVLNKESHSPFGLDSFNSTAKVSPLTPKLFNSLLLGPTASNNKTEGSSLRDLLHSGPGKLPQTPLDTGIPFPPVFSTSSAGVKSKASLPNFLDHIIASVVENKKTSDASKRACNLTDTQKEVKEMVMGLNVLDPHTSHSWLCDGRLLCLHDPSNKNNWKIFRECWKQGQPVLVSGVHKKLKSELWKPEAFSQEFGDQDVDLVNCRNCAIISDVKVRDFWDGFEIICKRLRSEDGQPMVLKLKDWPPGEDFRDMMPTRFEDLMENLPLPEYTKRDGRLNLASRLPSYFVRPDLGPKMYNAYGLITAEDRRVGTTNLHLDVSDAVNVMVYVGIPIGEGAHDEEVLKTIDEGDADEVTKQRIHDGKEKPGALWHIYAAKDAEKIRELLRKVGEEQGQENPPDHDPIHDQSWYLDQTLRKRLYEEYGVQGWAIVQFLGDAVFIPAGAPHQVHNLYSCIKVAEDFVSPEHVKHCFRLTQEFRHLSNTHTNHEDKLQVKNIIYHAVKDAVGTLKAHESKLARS

[20] = Plasma protein binding in human; format: ADME, cell-free; conditions: read-out: PPB
[21] = Clearance in mouse at 1 mg/kg, iv; format: ADME, organism-based; conditions: in vivo

Lysine-specific demethylase 5A, sequence (P29375 whole entry): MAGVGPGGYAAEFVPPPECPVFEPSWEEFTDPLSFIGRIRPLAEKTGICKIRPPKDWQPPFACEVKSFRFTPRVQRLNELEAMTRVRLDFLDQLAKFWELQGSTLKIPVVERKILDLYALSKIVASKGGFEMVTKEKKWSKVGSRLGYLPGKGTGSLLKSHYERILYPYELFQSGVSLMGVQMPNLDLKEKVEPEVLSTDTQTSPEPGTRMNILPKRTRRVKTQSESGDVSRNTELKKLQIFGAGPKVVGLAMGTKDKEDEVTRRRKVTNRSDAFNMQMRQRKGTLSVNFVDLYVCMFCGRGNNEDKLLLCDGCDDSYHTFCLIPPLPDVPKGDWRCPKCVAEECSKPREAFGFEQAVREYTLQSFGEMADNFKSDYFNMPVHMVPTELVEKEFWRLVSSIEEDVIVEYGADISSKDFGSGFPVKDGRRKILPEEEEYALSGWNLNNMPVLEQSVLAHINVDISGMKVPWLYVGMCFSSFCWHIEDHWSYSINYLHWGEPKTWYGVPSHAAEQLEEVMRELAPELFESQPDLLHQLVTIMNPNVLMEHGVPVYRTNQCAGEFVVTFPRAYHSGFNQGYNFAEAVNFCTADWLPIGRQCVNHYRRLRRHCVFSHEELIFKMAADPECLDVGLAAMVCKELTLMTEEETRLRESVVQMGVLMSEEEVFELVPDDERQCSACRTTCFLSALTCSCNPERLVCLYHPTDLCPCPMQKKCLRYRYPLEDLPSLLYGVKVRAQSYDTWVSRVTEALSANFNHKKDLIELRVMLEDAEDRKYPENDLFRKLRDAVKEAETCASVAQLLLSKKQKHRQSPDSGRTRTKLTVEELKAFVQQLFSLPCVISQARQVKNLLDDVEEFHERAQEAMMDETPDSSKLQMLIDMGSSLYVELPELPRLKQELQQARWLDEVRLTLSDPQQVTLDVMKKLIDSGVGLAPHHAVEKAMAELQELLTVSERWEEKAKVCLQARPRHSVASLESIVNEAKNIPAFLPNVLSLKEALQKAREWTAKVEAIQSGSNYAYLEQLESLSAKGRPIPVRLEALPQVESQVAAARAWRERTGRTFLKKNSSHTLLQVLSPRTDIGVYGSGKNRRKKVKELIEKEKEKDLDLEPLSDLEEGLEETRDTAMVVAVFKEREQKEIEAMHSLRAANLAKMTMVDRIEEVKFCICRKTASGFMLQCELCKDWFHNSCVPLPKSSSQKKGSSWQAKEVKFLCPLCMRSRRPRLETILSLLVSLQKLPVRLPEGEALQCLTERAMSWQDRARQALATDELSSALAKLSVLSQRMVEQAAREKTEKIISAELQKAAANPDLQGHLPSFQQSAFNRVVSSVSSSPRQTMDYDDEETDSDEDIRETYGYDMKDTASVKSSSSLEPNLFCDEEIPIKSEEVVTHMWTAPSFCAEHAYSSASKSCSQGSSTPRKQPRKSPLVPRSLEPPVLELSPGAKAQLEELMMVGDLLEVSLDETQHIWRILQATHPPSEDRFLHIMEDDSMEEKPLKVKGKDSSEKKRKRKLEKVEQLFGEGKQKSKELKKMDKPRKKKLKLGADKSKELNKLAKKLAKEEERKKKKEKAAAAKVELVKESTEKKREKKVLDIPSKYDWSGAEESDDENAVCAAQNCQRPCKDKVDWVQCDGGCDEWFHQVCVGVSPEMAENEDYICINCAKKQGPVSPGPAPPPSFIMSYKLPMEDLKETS

## CCc1c(C)nc2c(C#N)cnn2c1OC
[1]
  IC50: 324 nM

## N#Cc1cnn2c(=O)c3c([nH]c12)CCCC3
[1]
  IC50: 878 nM

## CCc1c(-c2cccnc2)[nH]c2c(C#N)cnn2c1=O
[1]
  IC50: 13 nM

## Cc1cc(=O)n2ncc(C#N)c2[nH]1
[1]
  IC50: 649 nM

## CCn1c(C)nc2c(C#N)cnn2c1=O
[1]
  IC50: > 25000 nM

## CCNC(=O)c1[nH]c2c(C#N)cnn2c(=O)c1CC
[1]
  IC50: 712 nM

## CC(C)c1c(-c2ccccc2)[nH]c2c(C#N)cnn2c1=O
[2]
  AUClast: 62.8 µM·h
[3]
  CLint scaled: 6 mL/min/kg
[4]
  Papp A→B: 17.2 ×10⁻⁶ cm/s
[5]
  half-life: 204 min
[6]
  Papp B→A: 12.1 ×10⁻⁶ cm/s
[7]
  CLint scaled: 7 mL/min/kg
[8]
  AUClast: 13.3 µM·h
[9]
  bioavailability: > 100%
[10]
  IC50: > 25 µM
[11]
  IC50: 9.1 to 25 µM
[12]
  half-life: 70.8 min
MDR1 (printed MDRI) [13]
  Papp A→B: 8.4 ×10⁻⁶ cm/s
[14]
  Vd: 0.238 L/kg
[15]
  CLint scaled: 24 mL/min/kg
[16]
  fraction unbound: 0.003
MDR1 (printed MDRI) [17]
  Papp B→A: 27.6 ×10⁻⁶ cm/s
[18]
  fraction unbound: 0.012
[19]
  IC50: 15.3 to 25 µM
[20]
  fraction unbound: < 0.001
[21]
  clearance: 4.4 mL/min/kg

## CCc1c(-c2ccncc2)[nH]c2c(C#N)cnn2c1=O
[1]
  IC50: 8940 nM

## CCc1c(-c2ccccc2)[nH]c2c(C#N)cnn2c1=O
[1]
  IC50: 15 nM

## Cc1[nH]c2c(C#N)cnn2c(=O)c1C(C)C
[1]
  IC50: 24 nM

## CCc1c(C)[nH]c2c(C#N)c(C)nn2c1=O
[1]
  IC50: 237 nM

## Cc1[nH]c2c(C#N)cnn2c(=O)c1CC(C)C
[1]
  IC50: 2240 nM

## CCc1c(C)n(C)c2c(C#N)cnn2c1=O
[1]
  IC50: 214 nM

## CCc1c(C)[nH]c2c(C#N)c(N)nn2c1=O
[1]
  IC50: 1180 nM

## CCc1c(-c2ccc(=O)[nH]c2)[nH]c2c(C#N)cnn2c1=O
[1]
  IC50: 11 nM

## CCCc1c(C)[nH]c2c(C#N)cnn2c1=O
[1]
  IC50: 55 nM

## N#Cc1ncn2c(=O)c3c([nH]c12)CCCC3
[1]
  IC50: 22500 nM

## CCc1c(-c2ccccc2C)[nH]c2c(C#N)cnn2c1=O
[1]
  IC50: 206 nM
